Patent US5624906A, “Oral hygiene compositions comprising heteroatom containing alkyl aldonamide compounds” (Lever Brothers Company, Division of Conopco, Inc., priority 1994, dated 1997)
Where two headings read alike, the source gives them in different places. One block for each compound: values may come before it.

Experiments:
Krafft point = format: physicochemical; conditions: for Krafft Point (0.1%): 0.1% in water; for Krafft Point (1.0%): 1.0% in water
Method: The temperature at and above which surfactants begin to form micelles instead of precipitates is referred to as the Krafft point (Tk) and at this temperature the solubility of a surfactant becomes equal to its CMC (numerical value at which micelles are formed).
The Krafft point was measured by preparing 650 ml of a 0.1% or 1.0% dispersion of aldonamide in water by weight. If the surfactant was soluble at room temperature, the solution was slowly cooled to 0° C. […] (less than zero). If it precipitated out of solution, the temperature at which precipitation occurs was taken as the Krafft point.
If the surfactant was insoluble at room temperature, the dispersion was slowly heated until the solution became homogeneous. It was then slowly cooled until precipitation occurred. The temperature at which the surfactant precipitates out of solution upon cooling was taken as the Krafft point.

[1] = Ross-Miles foam height (Examples 81-84); format: physicochemical; conditions: for Foam Height Initial / Foam Height Final: 0.1% aldonamide, 40° C. (or 5-10° C. above Krafft point), 0 ppm hardness; for Foam Height Final: after 10 minutes
Method: In the Ross-Miles method, 200 mL of a surfactant solution contained in a pipette of specified dimensions with a 2.9-mm-i.d. orifice is allowed to fall 90 cm onto 50 mL of the same solution contained in a cylindrical vessel maintained at a given temperature by means of a water jacket. The height of the foam produced in the cylindrical vessel is read immediately after all the solution has run out of the pipette and then again after a given amount of time.
Using this method, the foam production (initial foam height in mm) and foam stability (final foam height after 10 minutes in mm) were measured at 0.1% aldonamide concentration, 40° C. and 0 ppm (parts per million) hardness.

[2] = Clarity of prototype surfactant compositions (Example 87); format: physicochemical; conditions: room temperature; for Appearance: 6 months
Method: The prototype shampoo composition is as follows:
(§1) The above formulations were prepared by admixing the above ingredients in listed order and heating the mixture to about 80° C. with rapid stirring. The mixture was then cooled to about 40° C., placed in a clear jar and stored at room temperature for 6 months.

[3] = Viscosity of sodium lauryl sulfate compositions (Example 88); format: physicochemical; conditions: for Viscosity: 22° C.
Method: The prototype surfactant composition is as follows:
as §1
It is well known that the viscosity of a liquid composition comprising of anionic surfactant can be modified by the addition of inorganic salts, such as sodium chloride. However, in the absence of an organic modifier, high levels of salt may be necessary to achieve the required viscosity which may lead to problems of storage at cold temperature or even salting out certain ingredients. In practice, however, the viscosity of a liquid composition is modified by the simultaneous addition of thickener and small amounts of inorganic salt (viscosity cobuilder). The combined effect is greater than either one alone. The viscosity of the above prototype surfactant composition comprising various amounts of heteroatom containing alkyl aldonamide compound is as follows: […]

[4] = Effectiveness in reducing surface tension (surface pressure at CMC); format: physicochemical; conditions: 60 °C, estimated by extrapolating a linear line
Description: As mentioned before, surface tension reduction depends on the replacement of water molecules at the interface by surfactant molecules, therefore the effectiveness of a surfactant in reducing interfacial surface tension should reflect the saturated concentration of surfactant at the interface relative to that in bulk liquid phase. During this process the surface tension of water steadily decreases as bulk phase surfactant concentration increases. This will continue until the concentration reaches the critical micelle concentration (CMC), above which the surface tension remains nearly unchanged and the interface is saturated with surfactant. The surface tension at the CMC is therefore very close to the minimum interfacial tension or maximum surface pressure that the system can achieve. The surface pressure at this point, IIcmc, is a suitable measure of the effectiveness of a surfactant in reducing surface tension and is given as:
IIcmc =20+2.3nRT(Γmax) log[CMC/C20 ]
n=1 which represents the number of ions whose surface concentration changes with the change in liquid phase surfactant concentration.
CMC/C20 =is the ratio of the critical micelie concentration to the bulk phase surfactant concentration necessary to reduce the surface tension of water by 20 dyn/cm.

[5] = Effectiveness of adsorption (surface excess concentration, Gibbs equation); format: physicochemical; conditions: 60 °C, estimated by extrapolating a linear line
Description: The surface excess concentration at surface saturation (Γmax) is defined as a measure of the effectiveness of surfactant adsorption at the water/air interface and represents the maximum value to which adsorption can be obtained. Effectiveness of adsorption is related to the interfacial area occupied by the surfactant molecule. The smaller the effective cross-sectional area of a surfactant at the interface, the greater its effectiveness of adsorption. The effectiveness of adsorption is an important factor in determining surfactant properties such as detergency, foaming, wetting or emulsification. While not wishing to be bound by theory, it is believed that surfactants that absorb effectively at the interface tend have tightly packed coherent interfacial films and often provide better surfactant benefits than those with loosely packed noncoherent films. The effectiveness of adsorption of C8 /C10 oxypropyl D-gluconamide was determined using the Gibbs equation given as: […]
(∂γ/∂log[Conc])T

[6] = cited from earlier work
[7] = cited from earlier work; remark: listed apart in the source
[8] = Foam stability and enhancement of sodium/ammonium lauryl sulfate, Ross-Miles (Example 86); format: physicochemical; conditions: 0 ppm hardness, 45° C., 4.0% foam stabilizer in sodium/ammonium lauryl sulfate composition
Method: The results were compared to identical compositions comprising petrochemically derived foam stabilizing agents, in particular, alkanolamides and alcohol ethoxylates. The prototype surfactant composition is as follows:
The compositions were prepared by admixing the ingredients in listed order with rapid stirring at 45--50° C. Foam stability and enhancement were measured at 0.1% based on sodium and ammonium lauryl sulfate (0.16% total solids) at 45° C. and 0 or 120 parts per million (ppm) hardness calcium:magnesium ion 2:1.

[9] = 5.0% in […] sodium lauryl sulfate
[10] = 3.0% in […] sodium lauryl sulfate

Compound: CCCCCCCCCCCCOCCCNC(=O)[C@H](O)[C@@H](O)[C@H](O[C@@H]1O[C@H](CO)[C@H](O)[C@H](O)[C@H]1O)[C@H](O)CO [C12 Oxypropyl D-Lactobionamide, dodecyloxypropyl D-lactobionamide]
Krafft Point (1.0%) (Krafft point): < 0 °C | Viscosity Increase ([3]; 3.0% thickener): 23 x | Viscosity ([3]; 3.0% thickener): 340 Centipoise | Viscosity Increase ([3]; 5.0% thickener): 97 x | Viscosity ([3]; 5.0% thickener): 1455 Centipoise

Compound: CCCCCCCCCCCCCCCCNC(=O)[C@H](O)[C@@H](O)[C@H](O[C@@H]1O[C@H](CO)[C@H](O)[C@H](O)[C@H]1O)[C@H](O)CO [C16 D-Lactobionamide]
Krafft Point (1.0%) (Krafft point): 64 °C | Foam Height Initial [1]: 95 mm | Foam Height Final [1]: 95 mm

Compound: CCCCCCCCCCCCCCCCCCNC(=O)[C@H](O)[C@@H](O)[C@H](O)[C@H](O)CO [C18 D-Gluconamide]
Krafft Point (0.1%) (Krafft point): > 100 °C | Solubility ([1]; 0.1% in water): Insoluble

Compound: CCCCCCCCCCCCOCCOCCOCCOCCOCCOCCOCCO [Dodecylhepta(oxyethylene) Ether]
Πcmc (surface pressure) [4]: 36.8 dyn/cm | Γmax (surface excess concentration at surface saturation) [5]: 2.71 × 10^-10 mole/cm^2 | Πcmc (surface pressure) ([6]; 25 °C): 38.3 dyn/cm | Πcmc (surface pressure) ([6]; 40 °C): 38.5 dyn/cm | Γmax (surface excess concentration at surface saturation) ([7]; 25 °C): 2.90 × 10^-10 mole/cm^2 | Γmax (surface excess concentration at surface saturation) ([7]; 40 °C): 2.77 × 10^-10 mole/cm^2

Compound: CCCCCCCCCCCCOCCOCCOCCO [Dodecyltri(oxyethylene) Ether]
Πcmc (surface pressure) [4]: 41.4 dyn/cm | Γmax (surface excess concentration at surface saturation) [5]: 3.83 × 10^-10 mole/cm^2 | Πcmc (surface pressure) ([6]; 25 °C): 44.1 dyn/cm | Πcmc (surface pressure) ([6]; 40 °C): 43.1 dyn/cm | Γmax (surface excess concentration at surface saturation) ([7]; 25 °C): 3.98 × 10^-10 mole/cm^2 | Γmax (surface excess concentration at surface saturation) ([7]; 40 °C): 3.90 × 10^-10 mole/cm^2

Compound: CCCCC(CC)COCCCNC(=O)[C@H](O)[C@@H](O)[C@H](O)[C@H](O)CO (stereo partly drawn) [Ethylhexyloxypropyl D-Gluconamide]
Krafft Point (0.1%) (Krafft point): < 0 °C | Foam Height Initial [1]: 0 mm | Foam Height Final [1]: 0 mm

Compound: CCCCCCCCCCCC(=O)N(CCO)CCO [Lauramide DEA, lauramide diethanolamine]
Initial FH [8]: 190 mm

Compound: cocoaminopropyl D-gluconamide
Krafft Point (0.1%) (Krafft point): 18 °C | Foam Height Initial [1]: 186 mm | Foam Height Final [1]: 182 mm | Appearance [2, 10]: Clear | Appearance [2, 9]: Clear

Compound: cocoaminopropyl D-lactobionamide
Krafft Point (1.0%) (Krafft point): < 0 °C | Foam Height Initial [1]: 171 mm | Foam Height Final [1]: 168 mm

Compound: dodecyl to pentadecyloxypropyl D-lactobionamide [C12 -C15 Oxypropyl D-Lactobionamide]
Krafft Point (1.0%) (Krafft point): < 0 °C | Foam Height Initial [1]: 166 mm | Foam Height Final [1]: 155 mm

Compound: dodecyl to pentadecyloxypropylaminopropyl D-lactobionamide
Krafft Point (1.0%) (Krafft point): < 0 °C | Foam Height Initial [1]: 173 mm | Foam Height Final [1]: 169 mm

Compound: octyl/decyloxypropyl D-lactobionamide [C8 /C10 Oxypropyl D-Lactobionamide]
Krafft Point (1.0%) (Krafft point): < 0 °C | Foam Height Initial [1]: 168 mm | Foam Height Final [1]: 158 mm | Appearance [2, 10]: Clear | Appearance [2, 9]: Clear

Compound: octyl/decyloxypropyl D-ribonamide [C8 /C10 Oxypropyl D-Ribonamide]
Krafft Point (0.1%) (Krafft point): 10 °C | Foam Height Initial [1]: 217 mm | Foam Height Final [1]: 200 mm

More lines, main results first:

Krafft Point (0.1%) (Krafft point): 53 °C | Foam Height Initial [1]: 0 mm | Foam Height Final [1]: 0 mm | Appearance ([2]; 4.0% in […] sodium lauryl sulfate): Precipitate | Appearance (Time): time of precipitate ([2]; 4.0%): 2 weeks | Appearance [2, 9]: Precipitate | Appearance (Time): time of precipitate ([2]; 5.0%): 2 weeks
Compound: CCCCCCCCCNC(=O)[C@H](O)[C@@H](O)[C@H](O)[C@H](O)CO [C9 D-Gluconamide]

Krafft Point (0.1%) (Krafft point): 75 °C | Foam Height Final [1]: 6 mm | Appearance [2, 10]: Precipitate | Appearance [2, 9]: Precipitate
Compound: CCCCCCCCCCNC(=O)[C@H](O)[C@@H](O)[C@H](O)[C@H](O)CO [C10 D-Gluconamide]

Krafft Point (0.1%) (Krafft point): 61 °C | Foam Height Initial [1]: 200 mm | Foam Height Final [1]: 110 mm | Appearance [2, 10]: Clear | Appearance [2, 9]: Precipitate | Appearance (Time): time of precipitate ([2]; 5.0%): 5 months | Viscosity Increase ([3]; 3.0% thickener): 120 x | Viscosity ([3]; 3.0% thickener): 1800 Centipoise | Viscosity Increase ([3]; 5.0% thickener): 1373 x | Viscosity ([3]; 5.0% thickener): 20600 Centipoise
Compound: CCCCCCCCCCCCOCCCNC(=O)[C@H](O)[C@@H](O)[C@H](O)[C@H](O)CO [C12 Oxypropyl D-Gluconamide]

Πcmc (surface pressure) [4]: 40.7 dyn/cm | Γmax (surface excess concentration at surface saturation) [5]: 3.16 × 10^-10 mole/cm^2
Compound: CCCCCCCCCCCCOCCOCCOCCOCCOCCO [Dodecylpenta(oxyethylene) Ether]
CMC/C20 ([6]; 25 °C): 15.0 | Πcmc (surface pressure) ([6]; 25 °C): 41.5 dyn/cm | Πcmc (surface pressure) ([6]; 40 °C): 41.2 dyn/cm | Γmax (surface excess concentration at surface saturation) ([7]; 25 °C): 3.31 × 10^-10 mole/cm^2 | Γmax (surface excess concentration at surface saturation) ([7]; 40 °C): 3.28 × 10^-10 mole/cm^2

Πcmc (surface pressure) [4]: 40.7 dyn/cm | Γmax (surface excess concentration at surface saturation) [5]: 3.01 × 10^-10 mole/cm^2
Compound: CCCCCCCCCCCCOCCOCCOCCOCCO [Dodecyltetra(oxyethylene) Ether]
Πcmc (surface pressure) ([6]; 25 °C): 43.4 dyn/cm | Πcmc (surface pressure) ([6]; 40 °C): 42.0 dyn/cm | Γmax (surface excess concentration at surface saturation) ([7]; 25 °C): 3.63 × 10^-10 mole/cm^2 | Γmax (surface excess concentration at surface saturation) ([7]; 40 °C): 3.41 × 10^-10 mole/cm^2

Krafft Point (0.1%) (Krafft point): < 0 °C | Foam Height Final [1]: 84 mm
Compound: CCCCCCCC/C=C\CCCCCCCCNCCCNC(=O)[C@H](O)[C@@H](O)[C@H](O)[C@H](O)CO [Oleylaminopropyl D-Gluconamide, oleylaminopropyl D-gluconamide]

Appearance [2, 10]: Precipitate | Appearance (Time): time of precipitate ([2]; 3.0%): 1 days | Appearance [2, 9]: Precipitate | Appearance (Time): time of precipitate ([2]; 5.0%): 0.083 days
Compound: coco D-gluconamide

Krafft Point (0.1%) (Krafft point): 58 °C | Foam Height Initial [1]: 200 mm | Foam Height Final [1]: 110 mm
Compound: dodecyl to pentadecyloxypropyl D-gluconamide [C12 -C15 Oxypropyl D-Gluconamide]

Krafft Point (0.1%) (Krafft point): < 0 °C | Foam Height Initial [1]: 180 mm
Compound: dodecyl to pentadecyloxypropylaminopropyl D-gluconamide
